This is an account of results in patent US8148391B2 (Cephalon, Inc., priority 2006, dated 2012).

Like-named read-outs stand apart in the source and are kept apart here. A value given as a limit tells only on which side of the number the result lay.

For test [1], the target named is T1, c-Met (cytoplasmic domain) (Homo sapiens, UniProt P08581).
T1 construct: 10 ng/mL c-Met (cytoplasmic domain, Invitrogen Corporation #PV3143); purchased Invitrogen Corporation PV3143
Briefly: c-Met Kinase Assay (same methods as for ALK, with modifications). In kind it is biochemical. The procedure: Briefly, each 96-well plate was coated with 100 μL/well of 10 μg/mL substrate (phospholipase C-γ) in Tris-buffered saline (TBS). […] The reaction was initiated by adding enzyme (30 ng/ml ALK) and was allowed to proceed at 37° C. for 15 minutes. Detection of the phosphorylated product was performed by adding 100 μl/well of Eu-N1 labeled PT66 antibody (Perkin Elmer # AD0041).
Data analysis was performed using ActivityBase (IDBS, Guilford, UK). IC50 values were calculated by plotting percent inhibition versus log10 of the concentration of compound and fitting to the nonlinear regression sigmoidal dose-response (variable slope) equation in XLFit (IDBS, Guilford, UK).
Reactions were initiated with 10 ng/mL c-Met (cytoplasmic domain, Invitrogen Corporation #PV3143).

In test [2] the target is T2, baculovirus-expressed ALK (Homo sapiens, UniProt Q9UM73).
T2 construct: host or cells: baculovirus expression system
T2 sequence (Q9UM73 19-1620): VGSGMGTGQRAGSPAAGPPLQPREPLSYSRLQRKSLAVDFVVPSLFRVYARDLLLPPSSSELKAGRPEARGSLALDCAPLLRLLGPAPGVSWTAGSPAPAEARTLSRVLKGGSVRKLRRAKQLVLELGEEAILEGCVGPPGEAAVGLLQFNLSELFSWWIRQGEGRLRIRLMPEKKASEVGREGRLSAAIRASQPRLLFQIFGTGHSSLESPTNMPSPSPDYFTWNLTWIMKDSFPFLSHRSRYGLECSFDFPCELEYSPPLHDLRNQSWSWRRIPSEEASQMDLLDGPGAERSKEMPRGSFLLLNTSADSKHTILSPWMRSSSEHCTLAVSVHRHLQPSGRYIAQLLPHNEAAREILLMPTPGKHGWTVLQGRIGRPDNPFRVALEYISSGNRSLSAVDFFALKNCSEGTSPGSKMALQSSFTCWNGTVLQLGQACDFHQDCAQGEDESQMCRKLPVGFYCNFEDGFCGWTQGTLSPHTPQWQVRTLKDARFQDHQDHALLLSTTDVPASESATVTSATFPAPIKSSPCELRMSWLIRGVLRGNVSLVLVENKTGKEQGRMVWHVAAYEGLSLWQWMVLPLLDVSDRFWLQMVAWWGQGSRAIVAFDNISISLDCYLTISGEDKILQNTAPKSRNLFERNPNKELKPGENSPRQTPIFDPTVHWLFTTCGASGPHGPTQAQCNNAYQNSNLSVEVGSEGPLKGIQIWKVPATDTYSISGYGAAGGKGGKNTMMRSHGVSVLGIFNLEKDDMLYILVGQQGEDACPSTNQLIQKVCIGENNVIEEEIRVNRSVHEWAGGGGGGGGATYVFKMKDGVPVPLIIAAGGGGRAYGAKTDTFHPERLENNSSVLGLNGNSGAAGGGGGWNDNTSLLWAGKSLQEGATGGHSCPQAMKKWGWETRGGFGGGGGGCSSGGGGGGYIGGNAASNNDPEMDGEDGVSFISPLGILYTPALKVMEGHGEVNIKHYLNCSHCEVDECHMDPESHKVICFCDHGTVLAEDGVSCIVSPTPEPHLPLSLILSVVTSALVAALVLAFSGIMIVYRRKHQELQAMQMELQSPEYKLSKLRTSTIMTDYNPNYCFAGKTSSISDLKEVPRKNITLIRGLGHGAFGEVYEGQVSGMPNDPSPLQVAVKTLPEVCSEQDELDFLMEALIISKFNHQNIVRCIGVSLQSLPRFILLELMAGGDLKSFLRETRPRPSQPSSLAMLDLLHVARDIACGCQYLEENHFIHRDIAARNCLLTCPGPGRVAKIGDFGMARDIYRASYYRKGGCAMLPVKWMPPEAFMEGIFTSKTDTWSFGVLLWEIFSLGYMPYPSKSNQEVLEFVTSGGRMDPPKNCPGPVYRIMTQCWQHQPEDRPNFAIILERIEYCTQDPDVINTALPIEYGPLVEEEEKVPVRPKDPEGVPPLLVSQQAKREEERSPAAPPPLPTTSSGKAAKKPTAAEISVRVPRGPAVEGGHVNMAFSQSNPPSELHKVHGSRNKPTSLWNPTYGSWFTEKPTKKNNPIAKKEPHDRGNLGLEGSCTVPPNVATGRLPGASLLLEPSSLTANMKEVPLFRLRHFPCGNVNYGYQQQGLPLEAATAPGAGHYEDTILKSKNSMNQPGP
Briefly: ALK Kinase Assay (ELISA-type, time-resolved fluorescence). In kind it is biochemical. The gist of the method: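 Plates coated with phospholipase C-γ substrate (10 μg/mL in TBS); reaction started with 30 ng/ml ALK and run 15 min at 37° C. Phosphorylated substrate detected with Eu-N1-labeled PT66 antibody. IC50 from sigmoidal variable-slope fit of percent inhibition vs log concentration.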
For orientation: In an ELISA, binding on a coated surface is turned into a signal by an enzyme label.

The mark [3] stands for this setting: c-Met kinase inhibition, 1 μM ATP (Km level), read-out: cMet Activity.
[4] abbreviates: ALK kinase inhibition, 1 μM ATP (Km level), read-out: ALK Activity.
Where [5] appears, read: c-Met kinase inhibition, 1 μM ATP, read-out: cMet Activity.
The mark [6] stands for this setting: ALK kinase inhibition, 1 μM ATP, read-out: ALK Activity.
[7] abbreviates: 1 μM ATP (Km level), 10 ng/mL c-Met, read-out: cMet Activity (c-Met kinase inhibition, IC50 class).
Where [8] appears, read: 1 μM ATP (Km level), 30 ng/ml ALK, 37° C., 15 minutes, read-out: ALK Activity (ALK kinase inhibition, IC50 class).
Setting [9] is: 1 μM ATP (Km level), read-out: cMet Activity (c-Met Kinase Inhibition, IC50).
[10] abbreviates: 1 μM ATP (Km level), read-out: ALK Activity (ALK Kinase Inhibition, IC50).

T1 sequence (P08581 956-1390 limits assumed): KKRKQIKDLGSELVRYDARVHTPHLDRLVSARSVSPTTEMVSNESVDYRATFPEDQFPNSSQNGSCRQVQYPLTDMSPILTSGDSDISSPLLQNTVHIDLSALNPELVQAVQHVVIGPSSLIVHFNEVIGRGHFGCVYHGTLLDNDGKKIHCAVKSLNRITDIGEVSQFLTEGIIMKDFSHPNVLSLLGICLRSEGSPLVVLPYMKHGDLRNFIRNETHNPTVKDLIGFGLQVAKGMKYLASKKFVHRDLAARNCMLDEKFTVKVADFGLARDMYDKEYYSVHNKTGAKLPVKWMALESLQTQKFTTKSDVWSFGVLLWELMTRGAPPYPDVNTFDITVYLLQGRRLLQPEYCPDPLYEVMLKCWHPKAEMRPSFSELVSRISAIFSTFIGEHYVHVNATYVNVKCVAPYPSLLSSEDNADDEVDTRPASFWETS

For `CS(=O)(=O)N[C@@H]1CCCC[C@H]1Nc1nc(Nc2ccc3c(c2)C2CCC3CNC2)ncc1Cl` (stereo partly drawn) [Example 293, N-{(1R,2R)-2-[2-(10-Aza-tricyclo[6.3.2.0*2,7*]trideca-2,4,6-trien-4-ylamino)-5-chloro-pyrimidin-4-ylamino]-cyclohexyl}-methanesulfonamide], the values for the IC50 in test [1] (setting [3]) and in test [2] (setting [4]) were 1000 to 10000 nM and less than 100 nM, respectively.
`COCCN1C(=O)CCC(C)(C)c2ccc(Nc3ncc(Cl)c(Nc4c(F)cccc4OCC#N)n3)cc21` [Example 1521, (2-{5-Chloro-2-[1-(2-methoxy-ethyl)-5,5-dimethyl-2-oxo-2,3,4,5-tetrahydro-1H-1-benzazepin-8-ylamino]-pyrimidin-4-ylamino}-3-fluoro-phenoxy)-acetonitrile]: the IC50 in test [1] (setting [5]) and in test [2] (setting [6]) was less than 100 nM in each case.
For the molecule `COc1cc2c(cc1Nc1ncc(Cl)c(N[C@H]3[C@@H](C(N)=O)[C@@H]4C=C[C@H]3C4)n1)CCN(CC(=O)N(C)C)CC2` [Example 1123, (1S,2S,3R,4R)-3-[5-Chloro-2-(3-dimethylcarbamoylmethyl-8-methoxy-2,3,4,5-tetrahydro-1H-benzo[d]azepin-7-ylamino)-pyrimidin-4-ylamino]-bicyclo[2.2.1]hept-5-ene-2-carboxylic acid amide], the IC50 in test [1] (setting [7]) was greater than 10000 nM; in test [2] (setting [8]), less than 100 nM.
As for `C#CCNC(=O)c1cc(F)cc(F)c1Nc1nc(Nc2ccc3c(c2)NC(=O)CCC3)ncc1Cl` [Example 1729, 2-[5-Chloro-2-(2-oxo-2,3,4,5-tetrahydro-1H-benzo[b]azepin-8-ylamino)-pyrimidin-4-ylamino]-3,5-difluoro-N-prop-2-ynyl-benzamide], the figures for the IC50 in test [1] (setting [5]) and in test [2] (setting [6]) were 100 to 1000 nM and 1000 to 10000 nM, respectively.
Turning to `CCN1CCN(CC)c2cc(Nc3nc(Nc4cc5c(cc4OC)CCN(CC(=O)N(C)C)CC5)ncc3Cl)ccc2C1` [Example 723], the IC50 in test [1] (setting [9]) is greater than 10000 nM; in test [2] (setting [10]), less than 100 nM.
Take `CCN1CCc2cc(Nc3ncc(Cl)c(Nc4ccccc4C(=O)NC)n3)c(OC)c(N)c2CC1` [Example 50, 2-[2-(9-Amino-3-ethyl-8-methoxy-2,3,4,5-tetrahydro-1H-benzo[d]azepin-7-ylamino)-5-chloro-pyrimidin-4-ylamino]-N-methyl-benzamide]: the IC50 is greater than 10000 nM in test [1] (setting [3]) and less than 100 nM in test [2] (setting [4]).
For `CCN1CCc2ccc(Nc3ncc(F)c(Nc4ccccc4C(=O)NC)n3)cc2CC1` [Example 196, 2-[2-(3-Ethyl-2,3,4,5-tetrahydro-1H-benzo[d]azepin-7-ylamino)-5-fluoro-pyrimidin-4-ylamino]-N-methyl-benzamide], the IC50 in test [1] (setting [3]) and in test [2] (setting [4]) was less than 100 nM throughout.
Take `CCN1CCc2ccc(Nc3ncc(Cl)c(N[C@H]4CCCC[C@@H]4C(N)=O)n3)cc2CC1` [Example 1502, (1S,2S)-2-[5-Chloro-2-(3-ethyl-2,3,4,5-tetrahydro-1H-enzo[d]azepin-7-ylamino)-pyrimidin-4-ylamino]-cyclohexanecarboxylic acid amide]: the values for the IC50 in test [1] (setting [5]) and in test [2] (setting [6]) were greater than 10000 nM and 100 to 1000 nM, respectively.
On to `COCCNC1CCc2cc(Nc3ncc(Cl)c(Nc4ccccc4S(=O)(=O)C(C)C)n3)c(OC)cc2CC1` (stereo not drawn) [Example 1084, 5-Chloro-N*2*-[3-methoxy-7-(2-methoxy-ethylamino)-6,7,8,9-tetrahydro-5H-benzocyclohepten-2-yl]-N*4*-[2-(propane-2-sulfonyl)-phenyl]-pyrimidine-2,4-diamine], for which the figures for the IC50 in test [1] (setting [7]) and in test [2] (setting [8]) were 1000 to 10000 nM and less than 100 nM, respectively.
On the same counts, the results for `CNC(=O)CN1CCc2cc(Nc3ncc(Cl)c(N[C@H]4[C@@H](C(N)=O)[C@@H]5C=C[C@H]4C5)n3)c(OC)cc2CC1` [Example 1124, (1S,2S,3R,4R)-3-[5-Chloro-2-(8-methoxy-3-methylcarbamoylmethyl-2,3,4,5-tetrahydro-1H-benzo[d]azepin-7-ylamino)-pyrimidin-4-ylamino]-bicyclo[2.2.1]hept-5-ene-2-carboxylic acid amide] are greater than 10000 nM and less than 100 nM.
In the case of `Cn1ccnc1-c1ccccc1Nc1nc(Nc2ccc3c(c2)CCC(N2CCOCC2)CC3)ncc1Cl` (stereo not drawn) [Example 218, 5-Chloro-N*4*-[2-(1-methyl-1H-imidazol-2-yl)-phenyl]-N*2*-(7-morpholin-4-yl-6,7,8,9-tetrahydro-5H-benzocyclohepten-2-yl)-pyrimidine-2,4-diamine], the IC50 in test [1] (setting [3]) was 100 to 1000 nM; in test [2] (setting [4]) it was less than 100 nM.
Consider `CCNC(=O)c1cccc(F)c1Nc1nc(Nc2ccc3c(c2)C(C)(C)CCC(=O)N3C)ncc1Cl` [Example 1366, 2-[5-Chloro-2-(1,5,5-trimethyl-2-oxo-2,3,4,5-tetrahydro-1H-benzo[b]azepin-7-ylamino)-pyrimidin-4-ylamino]-N-ethyl-3-fluoro-benzamide], for which the IC50 in test [1] (setting [7]) and in test [2] (setting [8]) was less than 100 nM each time.
For `CNC(=O)c1cc(F)ccc1Nc1nc(Nc2ccc3c(c2)-n2ccnc2CCC3)ncc1Cl` [Example 1841, 2-[5-Chloro-2-(5,6-dihydro-4H-3,10b-diaza-benzo[e]azulen-9-ylamino)-pyrimidin-4-ylamino]-5-fluoro-N-methyl-benzamide], the IC50 fell in the range of 100 to 1000 nM in test [1] (setting [5]) and 1000 to 10000 nM in test [2] (setting [6]).
As for `CN1CCN(C2CCc3ccc(Nc4ncc(Cl)c(Nc5ccccc5S(=O)(=O)N(C)C)n4)cc3CC2)CC1` (stereo not drawn) [Example 890, 2-{5-Chloro-2-[7-(4-methyl-piperazin-1-yl)-6,7,8,9-tetrahydro-5H-benzocyclohepten-2-ylamino]-pyrimidin-4-ylamino}-N,N-dimethyl-benzenesulfonamide], the figures for the IC50 in test [1] (setting [9]) and in test [2] (setting [10]) were 100 to 1000 nM and less than 100 nM, respectively.
As for `C#CCN(C)C(=O)c1ccccc1Nc1nc(Nc2ccc3c(c2)CCN(CCOC)CC3)ncc1Cl` [Example 1389, {5-Chloro-2-[3-(2-methoxy-ethyl)-2,3,4,5-tetrahydro-1H-benzo[d]azepin-7-ylamino]-pyrimidin-4-ylamino}-N-methyl-N-prop-2-ynyl-benzamide], the figures for the IC50 in test [1] (setting [7]) and in test [2] (setting [8]) were 100 to 1000 nM and less than 100 nM, respectively.
Turning to `COc1cc2c(cc1Nc1ncc(Cl)c(Nc3ccc(N4CC5CC4CO5)cc3OC)n1)CCN(CC(=O)N(C)C)CC2` (stereo not drawn) [Example 794, 2-(7-{5-Chloro-4-[2-methoxy-4-(2-oxa-5-aza-bicyclo[2.2.1]hept-5-yl)-phenylamino]-pyrimidin-2-ylamino}-8-methoxy-1,2,4,5-tetrahydro-benzo[d]azepin-3-yl)-N,N-dimethyl-acetamide], the figures for the IC50 in test [1] (setting [9]) and in test [2] (setting [10]) were greater than 10000 nM and less than 100 nM, respectively.
In the case of `COc1cc2c(cc1Nc1ncc(Cl)c(N[C@@H]3CCCC[C@H]3NS(C)(=O)=O)n1)NC(=O)CNC2` [Example 1655, N-{(1R,2R)-2-[5-Chloro-2-(7-methoxy-2-oxo-2,3,4,5-tetrahydro-1H-benzo[e][1,4]diazepin-8-ylamino)-pyrimidin-4-ylamino]-cyclohexyl}-methanesulfonamide], the figures for the IC50 in test [1] (setting [5]) and in test [2] (setting [6]) were greater than 10000 nM and less than 100 nM, respectively.
On the same counts, the results for `C#CCOc1cccc(F)c1Nc1nc(Nc2ccc3c(c2)CCOC(=O)N3C)ncc1Cl` [Example 1779, 2-[5-Chloro-4-(2-fluoro-6-prop-2-ynyloxy-phenylamino)-pyrimidin-2-ylamino]-5-methyl-8,9-dihydro-5H-7-oxa-5-aza-benzocyclohepten-6-one] are 100 to 1000 nM and 100 to 1000 nM.
On to `CN(CCC#N)c1cccc(F)c1Nc1nc(Nc2ccc3c(c2)NC(=O)CCC3(C)C)ncc1Cl` [Example 1263, 3-({2-[5-Chloro-2-(5,5-dimethyl-2-oxo-2,3,4,5-tetrahydro-1H-1-benzazepin-8-ylamino)-pyrimidin-4-ylamino]-3-fluoro-phenyl}-methyl-amino)-propionitrile], for which the IC50 lay in the range of 1000 to 10000 nM in test [1] (setting [7]) and 100 to 1000 nM in test [2] (setting [8]).
With `CCN1C(=O)C(NC(C)=O)CC(C)(C)c2ccc(Nc3ncc(Cl)c(Nc4c(F)cccc4C(=O)NC)n3)cc21` (stereo not drawn) [Example 1643, 2-[2-(3-Acetylamino-1-ethyl-5,5-dimethyl-2-oxo-2,3,4,5-tetrahydro-1H-benzo[b]azepin-8-ylamino)-5-chloro-pyrimidin-4-ylamino]-3-fluoro-N-methyl-benzamide], the IC50 in test [1] (setting [5]) was less than 100 nM; in test [2] (setting [6]) it was 100 to 1000 nM.
The matching figures for `CNC(=O)c1sc(C)c(C)c1Nc1nc(Nc2ccc3c(c2)CCOC(=O)N3C)ncc1Cl` [Example 1772, 5-Methyl-3-[5-chloro-2-(5-methyl-6-oxo-5,6,8,9-tetrahydro-7-oxa-5-aza-benzocyclohepten-2-ylamino)-pyrimidin-4-ylamino]-4-methyl-thiophene-2-carboxylic acid methylamide]: less than 100 nM and 1000 to 10000 nM.
